Data reported in patent US9499614B2, “Methods for modulating protein glycosylation profiles of recombinant protein therapeutics using monosaccharides and oligosaccharides” (AbbVie, Inc., priority 2013, dated 2016).

Experiments:
Assay type in all cases: cell-based, Chinese Hamster
[1] = system: Cell Line 2; experiment: Shake flask fed batch culture of Cell Line 2 (DVD 1), cell culture performance (Example 2); conditions: for viable cell density over time: 1, 30 and 50 mM vs control
Protocol: (§1) Two recombinant Chinese Hamster Ovary (CHO) cell lines expressing two different recombinant glycoproteins were evaluated in two different cultures vessels (shaker flasks and 3 L laboratory scale bioreactors). Cell Line 1 expressed Antibody 1, Cell Line 2 expressed Dual Variable Domain Immunoglobulin 1 (DVD 1) and Cell Line 3 expressed Antibody 2. Antibodies 1 and 2 are IgG1 proteins, and DVD 1 is an immunoglobulin with two variable domains as documented previously (Wu C. et al., (2007) Nat. Biotechnol 25(11):1290-1297). All cell lines were of CHO DUX-B11 origin based on a dhfr (dihydrofolate reductase) expression system. All cell lines were cultured in the same chemically defined basal media. Cell lines 1 and 2 were fed with the same chemically-defined feed media, but Cell Line 1 was fed media that was formulated at a 50% higher concentration. Each of the respective media were supplemented with either sucrose or tagatose to evaluate their potential impact on the resulting N-glycan oligosaccharide profile. All sugars were purchased from Sigma-Aldrich (St. Louis, Mo.). In preparation of the cultures, the cell lines were serially expanded through separate seed train inoculums to generate enough cells for inoculation.
Viable cell density (VCD) and cell viability values were measured through trypan blue exclusion via Cedex automated cell counters (Roche Applied Science, Indianapolis, Ind.), glucose and lactate values were measured with a ABL-805 (Radiometer Medical, Denmark) blood gas analyzer. Offline pH, dissolved oxygen (DO), and pCO2 measurements were performed with an ABL-805 (Radiometer Medical, Denmark) blood gas analyzer. Osmolality was measured on a Multi-Osmette 2430 osmometer (Precision Systems, Natick, Mass.).
Antibody titers were measured from crude cell culture harvests on a Poros A™ (Life Technologies, Carlsbad, Calif.) affinity column using an Agilent (Santa Clara, Calif.) 1200 Series HPLC, or equivalent, operating with a low pH, step elution gradient with detection at 280 nm. Absolute concentrations were assigned with respect to reference standard calibration curves.
(§2) Experimental results are expressed as mean±SD for those results generated from at least three independent cultures. Experimental results are expressed as the measured value for those results generated from less than three independent cultures. Results were evaluated for statistical significance through 2-sided t-tests, with a requirement of p<0.05 relative to the unsupplemented control conditions.
Cell Line 2 was cultured in shake flasks in fed batch mode after an abbreviated seed train. Sucrose and tagatose were supplemented into chemically-defined basal and feed media at concentrations of 1, 30, and 50 mM, and process performance results were compared to unsupplemented control conditions. The viable cell density (VCD), viability, and harvest titer results are shown in FIGS. 15A-15C for the sucrose supplemented cultures and FIGS. 16A-16C for the tagatose supplemented cultures.

[2] = system: Cell Line 1; experiment: N-glycan oligosaccharide profiling, Cell Line 1 (Antibody 1) shake flasks (Example 2)
Protocol: as §1
(§3) Purified antibodies subjected to additional analytical characterization were purified using MabSelect™ Protein A (GE Healthcare, Piscataway, N.J.) using a low pH, step elution gradient, followed by buffer exchange using Corning Lifesciences (Tewksbury, Mass.) Spin Concentrator X UF columns according to the manufacturers' recommended procedures.
(§4) Approximately 200 μg of Protein A purified samples from Cell Lines 1 and 2 were treated with N-glycanase at 37° C. overnight to remove the N-glycans from the protein. The protein was precipitated and the supernatant was taken for subsequent chemical derivatization of the reducing end of the released glycans with 2-aminobenzamide (2-AB) dye. Following the derivatization step, the excess label was removed using clean up cartridges and the samples were analyzed using normal phase HPLC with fluorescent detection. Mobile phase A was 100% acetonitrile and mobile phase B was 50 mM ammonium formate pH 4.4. The glycans were eluted from a polyamide column (Prozyme, Hayward, Calif.) using a shallow gradient. The labeled glycans were detected using a fluorescence detector with an excitation wavelength of 330 nm and an emission wavelength of 420 nm.
as §2
Cell Line 1 was cultured in shake flasks in fedbatch mode after an abbreviated seed train. Sucrose and tagatose were supplemented into chemically-defined basal and feed media at concentrations of 1, 10, 30, 50, and 70 mM, and compared to unsupplemented control conditions. The viable cell density (VCD), viability, and harvest titer results are shown in FIGS. 13A-13C for the sucrose supplemented cultures and FIGS. 14A-14C for the tagatose supplemented cultures.

[3] = system: Cell Line 1; experiment: N-glycan oligosaccharide profiling, Cell Line 1 in 3 L laboratory-scale bioreactors; conditions: 50 mM supplement vs control
Protocol: as §3, §4
3 L scale-down model bioreactors were utilized to verify the impact of select sugars on the resulting protein glycosylation profiles. The concentration of the sucrose and tagatose was chosen to minimize any potential adverse impact on cell growth and productivity, but still facilitate a measurable modulation of the glycosylation profile. Cell culture process performance indicators were monitored and measured throughout the respective cultures. Viable cell density, cell viability, lactate, pCO2, osmolality, harvest titer, and harvest N-glycan oligosaccharide data were measured and reported.
3 L scale laboratory bioreactors were utilized to verify the impact of sucrose, tagatose, or fructose on protein glycosylation profiles. Concentrations of the sugars were chosen to minimize any potential adverse impacts on cell growth and productivity, but still facilitate a measurable impact on the glycoform profile. Cell culture process performance indicators were monitored and measured throughout the study. Viable cell density, cell viability, lactate, pCO2, osmolality, harvest titer, and harvest N-glycan oligosaccharide data was measured and reported.

## OC[C@H]1O[C@@](CO)(O[C@H]2O[C@H](CO)[C@@H](O)[C@H](O)[C@H]2O)[C@@H](O)[C@@H]1O [sucrose]
[1]; 50 mM vs control
  harvest titer reduction: 48%
  reduction in peak VCD: at most 2×10^6 cells/mL
[1]
  viable cell density over time: remained approximately the same
[2]; 70 mM supplement vs control
  cumulative increase in overall mannosylated N-glycans: 37%
  decrease in NA1F species: 1%
  drop in NGA2F species: 44%
  increase in Man 5 species: 19%
  increase in Man 6 species: 10%
  increase in Man 7 species: 6%
  increase in Man 8 species: 2%
  increase in NGA2F-GlcNAc species: 8%
  overall decrease in the fucosylation level: 37%
[2]; 10, 30, 50 and 70 mM
  overall N-glycan core fucosylation: decreased in a statistically significant manner
[3]
  Man 5 increase: 16%
  Man 6 increase: 5%
  Man 7 increase: 3%
  decrease in NA1F: 3%
  decrease in NGA2F species: 29%
  increase in NA1F-GlcNAc: 1%
  increase in NGA2F-GlcNAc: 7%
  increase in overall mannosylation: 24%
  overall decrease in fucosylation: 24%

## O=C(CO)[C@@H](O)[C@@H](O)[C@H](O)CO [tagatose]
[1]; 1 mM vs control
  relative harvest titer: did not adversely impact relative harvest titer
[1]; 30 mM and 50 mM vs control
  viability after Day 8: remained higher than the control
[1]; 30 mM vs control
  harvest titer decrease: 15%
[1]; 50 mM vs control
  harvest titer reduction: 38%
[1]
  viable cell density over time: slightly higher compared to the control
[2]; 70 mM supplement vs control
  cumulative increase in overall mannosylated N-glycans: 15%
  drop in NGA2F species: 23%
  increase in Man 5 species: 8%
  increase in Man 6 species: 4%
  increase in Man 7 species: 2%
  increase in Man 8 species: 1%
  increase in NGA2F-GlcNAc species: 8%
  overall decrease in the fucosylation level: 15%
[2]; 1, 10 and 30 mM
  N-glycan profiles compared to the control culture: not practically different compared to the control culture
[3]
  Man 5 increase: 7%
  Man 6 increase: 2%
  Man 7 increase: 1%
  decrease in NA1F: 3%
  decrease in NGA2F species: 15%
  increase in NA1F-GlcNAc: 1%
  increase in NGA2F-GlcNAc: 6%
  increase in overall mannosylation: 10%
  overall decrease in fucosylation: 11%
